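Briefly, cells in 96-well plates were exposed to five compound concentrations for 48 h, and endpoints were estimated by linear interpolation. The concentration for 50% growth inhibition is given as GI50. The concentration for full growth arrest is given as TGI.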
Tests used:
Assay in all cases: NCI anticancer screen, dose series, 48 h
[1] = test system: MDA-MB-231 breast
[2] = test system: UACC-257 melanoma
[3] = test system: OVCAR-3 ovarian
[4] = test system: SF-268 CNS
[5] = test system: HOP-92 NSCLC
[6] = test system: 786-0 renal
[7] = test system: SK-MEL-5 melanoma
[8] = test system: COLO 205 colon
[9] = test system: OVCAR-5 ovarian
[10] = test system: K-562 leukemia
[11] = test system: ACHN renal
[12] = test system: HS 578T breast
[13] = test system: SF-295 CNS
[14] = test system: NCI-H226 lung
[15] = test system: HL-60(TB) leukemia
[16] = test system: MDA-MB-435
[17] = test system: SN12C renal
[18] = test system: SR leukemia
[19] = test system: NCI-H522 lung
[20] = test system: SK-MEL-2 melanoma
[21] = test system: SNB-75 CNS
[22] = test system: SW-620 colon
[23] = test system: DU-145 prostate
[24] = test system: EKVX NSCLC
[25] = test system: RPMI-8226 leukemia
[26] = test system: M14 melanoma
[27] = test system: NCI-H23 lung
[28] = test system: HT29 colon
[29] = test system: A498 renal
[30] = test system: SNB-19 CNS
[31] = test system: OVCAR-8 ovarian
[32] = test system: SK-OV-3 ovarian
[33] = test system: LOX IMVI melanoma
[34] = test system: U251 CNS
[35] = test system: UO-31 renal
[36] = test system: NCI/ADR-RES ovarian
[37] = test system: HOP-62 NSCLC
[38] = test system: BT-549 breast
[39] = test system: MCF7 breast
[40] = test system: RXF 393 renal
[41] = test system: HCC-2998 colon
[42] = test system: HCT-116 colon
[43] = test system: TK-10 renal
[44] = test system: KM12 colon
[45] = test system: NCI-H460 lung
[46] = test system: T-47D breast
[47] = test system: IGROV1 ovarian
[48] = test system: HCT-15 colon
[49] = test system: OVCAR-4 ovarian
[50] = test system: PC-3 prostate
[51] = test system: SK-MEL-28 melanoma
[52] = test system: SF-539 CNS
[53] = test system: CAKI-1 renal
[54] = test system: UACC-62 melanoma
[55] = test system: CCRF-CEM leukemia
[56] = test system: A549 NSCLC
[57] = test system: MALME-3M melanoma
[58] = test system: MOLT-4 leukemia

SMILES: O=C1OCC(C#Cc2ccccc2)=C1Br
- GI50 [1]: 3.12 µM
- TGI [1]: 14.8 µM
- GI50 [2]: 8.26 µM
- TGI [2]: 28.2 µM
- GI50 [3]: 1.77 µM
- TGI [3]: 8.9 µM
- GI50 [4]: 4.76 µM
- TGI [4]: 20.6 µM
- GI50 [5]: 3.93 µM
- TGI [5]: 13.4 µM
- GI50 [6]: 2.58 µM
- TGI [6]: 12.5 µM
- GI50 [7]: 1.82 µM
- TGI [7]: 6.15 µM
- GI50 [8]: 5.35 µM
- TGI [8]: > 54.7 µM
- GI50 [9]: > 100 µM
- TGI [9]: > 100 µM
- GI50 [10]: 2.63 µM
- TGI [10]: 11.6 µM
- GI50 [11]: 9.34 µM
- TGI [11]: > 43.9 µM
- GI50 [12]: 6.2 µM
- TGI [12]: 19 µM
- GI50 [13]: 17.7 µM
- TGI [13]: 48.8 µM
- GI50 [14]: 23.1 µM
- TGI [14]: 72 µM
- GI50 [15]: 0.0201 µM
- TGI [15]: 0.384 µM
- GI50 [16]: 10.8 µM
- TGI [16]: 48.3 µM
- GI50 [17]: 3.14 µM
- TGI [17]: 14.1 µM
- GI50 [18]: 0.186 µM
- TGI [18]: > 100 µM
- GI50 [19]: 17.4 µM
- TGI [19]: 49.7 µM
- GI50 [20]: 18.8 µM
- TGI [20]: 52.4 µM
- GI50 [21]: 18.1 µM
- TGI [21]: > 100 µM
- GI50 [22]: 1.72 µM
- TGI [22]: 5.75 µM
- GI50 [23]: 3.42 µM
- TGI [23]: 13.2 µM
- GI50 [24]: 17.2 µM
- TGI [24]: 35.5 µM
- GI50 [25]: 0.648 µM
- TGI [25]: 3.09 µM
- GI50 [26]: 2.83 µM
- TGI [26]: 16 µM
- GI50 [27]: 2.94 µM
- TGI [27]: 9.5 µM
- GI50 [28]: 7.67 µM
- TGI [28]: 97.4 µM
- GI50 [29]: 19.3 µM
- TGI [29]: 54.5 µM
- GI50 [30]: 21.5 µM
- TGI [30]: > 68.8 µM
- GI50 [31]: 2.27 µM
- TGI [31]: 7.26 µM
- GI50 [32]: 52.9 µM
- TGI [32]: > 100 µM
- GI50 [33]: 3.15 µM
- TGI [33]: > 35.9 µM
- GI50 [34]: 4.88 µM
- TGI [34]: > 39.3 µM
- GI50 [35]: 7.66 µM
- TGI [35]: 22.7 µM
- GI50 [36]: 6.25 µM
- TGI [36]: > 63.2 µM
- GI50 [37]: 13.2 µM
- TGI [37]: 38.2 µM
- GI50 [38]: 6.03 µM
- TGI [38]: 27.4 µM
- GI50 [39]: 2.69 µM
- TGI [39]: 12.8 µM
- GI50 [40]: 3.96 µM
- TGI [40]: 31.8 µM
- GI50 [41]: 19.3 µM
- TGI [41]: 37.3 µM
- GI50 [42]: 0.541 µM
- TGI [42]: > 31.6 µM
- GI50 [43]: 0.929 µM
- TGI [43]: 17.1 µM
- GI50 [44]: 3.64 µM
- TGI [44]: 15 µM
- GI50 [45]: 19.5 µM
- TGI [45]: 48.5 µM
- GI50 [46]: 16.3 µM
- TGI [46]: > 67.5 µM
- GI50 [47]: 4.77 µM
- TGI [47]: 33.5 µM
- GI50 [48]: 3.96 µM
- TGI [48]: > 38.4 µM
- GI50 [49]: 7.13 µM
- TGI [49]: 27.7 µM
- GI50 [50]: 2.56 µM
- TGI [50]: 12.7 µM
- GI50 [51]: 4.75 µM
- TGI [51]: > 100 µM
- GI50 [52]: 2.42 µM
- TGI [52]: 9.81 µM
- GI50 [53]: 5.61 µM
- TGI [53]: 13.4 µM
- GI50 [54]: 10.7 µM
- TGI [54]: 26.1 µM
- GI50 [55]: 1.1 µM
- TGI [55]: 5.58 µM
- GI50 [56]: 16.7 µM
- TGI [56]: 34.6 µM
- GI50 [57]: 2.18 µM
- TGI [57]: 9.33 µM

SMILES: C#C[C@@]1(O)[C@@H](CO)O[C@@H](n2cc(Br)c3c(N)ncnc32)[C@@H]1O
- GI50 [1]: 0.11 µM
- TGI [1]: > 100 µM
- GI50 [2]: 4.08 µM
- TGI [2]: 61.6 µM
- GI50 [3]: 0.215 µM
- TGI [3]: 3.77 µM
- GI50 [4]: 0.482 µM
- TGI [4]: 51.7 µM
- GI50 [5]: 0.218 µM
- TGI [5]: 1.46 µM
- GI50 [7]: 0.107 µM
- TGI [7]: 1.94 µM
- GI50 [8]: 0.0891 µM
- TGI [8]: 0.46 µM
- GI50 [9]: 0.593 µM
- TGI [9]: > 75.3 µM
- GI50 [10]: 0.0608 µM
- TGI [10]: > 100 µM
- GI50 [12]: 0.644 µM
- TGI [12]: > 72.4 µM
- GI50 [13]: 0.297 µM
- TGI [13]: 7.52 µM
- GI50 [14]: 1.28 µM
- TGI [14]: > 25.2 µM
- GI50 [15]: 0.0218 µM
- TGI [15]: 0.0757 µM
- GI50 [16]: 0.176 µM
- TGI [16]: 10.3 µM
- GI50 [17]: 0.0907 µM
- TGI [17]: > 100 µM
- GI50 [18]: 0.0608 µM
- TGI [18]: > 100 µM
- GI50 [19]: 0.0978 µM
- TGI [19]: 0.444 µM
- GI50 [20]: 0.134 µM
- TGI [20]: 0.571 µM
- GI50 [21]: 0.234 µM
- TGI [21]: 0.746 µM
- GI50 [22]: 0.0487 µM
- TGI [22]: > 100 µM
- GI50 [23]: 0.0974 µM
- TGI [23]: > 100 µM
- GI50 [24]: 0.198 µM
- TGI [24]: 2.68 µM
- GI50 [25]: 0.128 µM
- TGI [25]: 0.828 µM
- GI50 [26]: 0.226 µM
- TGI [26]: 13.5 µM
- GI50 [27]: 0.191 µM
- TGI [27]: 2.85 µM
- GI50 [28]: 0.038 µM
- TGI [28]: > 100 µM
- GI50 [29]: 0.227 µM
- TGI [29]: 0.587 µM
- GI50 [58]: 0.112 µM
- GI50 [30]: 0.0606 µM
- GI50 [31]: 0.0135 µM
- TGI [31]: 1.12 µM
- GI50 [32]: 0.0441 µM
- TGI [32]: 0.439 µM
- GI50 [33]: 0.0552 µM
- TGI [33]: 0.249 µM
- GI50 [35]: 0.13 µM
- TGI [35]: 1.5 µM
- GI50 [36]: 0.0451 µM
- TGI [36]: 1.02 µM
- GI50 [37]: 0.3 µM
- TGI [37]: > 21.8 µM
- GI50 [38]: 0.186 µM
- TGI [38]: 0.663 µM
- GI50 [39]: 0.0222 µM
- TGI [39]: 1.47 µM
- GI50 [40]: 0.48 µM
- TGI [40]: 2.29 µM
- GI50 [41]: 0.201 µM
- TGI [41]: 0.809 µM
- GI50 [42]: 0.0274 µM
- TGI [42]: > 100 µM
- GI50 [43]: 0.445 µM
- TGI [43]: > 92.6 µM
- GI50 [44]: 0.107 µM
- TGI [44]: > 100 µM
- GI50 [45]: 0.0292 µM
- TGI [45]: 0.901 µM
- GI50 [46]: 0.0173 µM
- TGI [46]: 0.177 µM
- GI50 [47]: 0.0699 µM
- TGI [47]: 0.485 µM
- GI50 [48]: 0.11 µM
- TGI [48]: > 100 µM
- GI50 [49]: 0.366 µM
- TGI [49]: > 100 µM
- GI50 [50]: 0.0893 µM
- TGI [50]: > 29.5 µM
- GI50 [51]: 3.65 µM
- TGI [51]: 38.1 µM
- GI50 [52]: 0.298 µM
- TGI [52]: 1.53 µM
- GI50 [54]: 0.23 µM
- TGI [54]: 12.3 µM
- GI50 [55]: 0.2 µM
- TGI [55]: > 100 µM
- GI50 [57]: 0.708 µM
- TGI [57]: 13.1 µM
